How the values were obtained:
[1] = in vivo; cited from earlier work
clinical = conditions: human, in vivo, po
Description: We performed a study on 30 healthy volunteer subjects using a double-blind design. Subjects with ages between 18 and 55 years were recruited. Exclusion criteria were: the use of substances with activity in CYP3A4 (quinidines), inhibitors (erythromycin), inducers (carbamazepines); consumption of illegal drugs (cocaine, heroin, tetrahydrocannabinoids); cigarettes, oral contraceptives, pregnancy, nursing, renal or liver disease history, obesity (>30% above ideal weight), abnormal biochemistry (electrolytes, liver or renal function) or hematologic (full count of blood cells).
After medicament delivery in each group, blood samples were taken at 0.5, 1, 1.5, 2, 2.5, 3, 4, 6, 8, 24 y 32 hours.

[2] = human, in vivo, cited from earlier work
human serum proteins = conditions: cited from earlier work
CYP2D6 isoenzyme = CYP2D6 isoenzyme (Homo sapiens, UniProt P10635); conditions: cited from earlier work; for activity over CYP2D6 isoenzyme compared with fluoxetine and its active metabolite: relative to fluoxetine and its active metabolite
[3] = system: serotonin reuptake process; conditions: relative to Sertraline; cited from earlier work
[4] = cited from earlier work
[5] = metabolites of Alprazolam; cited from earlier work

Sequence of CYP2D6 isoenzyme (P10635 whole entry): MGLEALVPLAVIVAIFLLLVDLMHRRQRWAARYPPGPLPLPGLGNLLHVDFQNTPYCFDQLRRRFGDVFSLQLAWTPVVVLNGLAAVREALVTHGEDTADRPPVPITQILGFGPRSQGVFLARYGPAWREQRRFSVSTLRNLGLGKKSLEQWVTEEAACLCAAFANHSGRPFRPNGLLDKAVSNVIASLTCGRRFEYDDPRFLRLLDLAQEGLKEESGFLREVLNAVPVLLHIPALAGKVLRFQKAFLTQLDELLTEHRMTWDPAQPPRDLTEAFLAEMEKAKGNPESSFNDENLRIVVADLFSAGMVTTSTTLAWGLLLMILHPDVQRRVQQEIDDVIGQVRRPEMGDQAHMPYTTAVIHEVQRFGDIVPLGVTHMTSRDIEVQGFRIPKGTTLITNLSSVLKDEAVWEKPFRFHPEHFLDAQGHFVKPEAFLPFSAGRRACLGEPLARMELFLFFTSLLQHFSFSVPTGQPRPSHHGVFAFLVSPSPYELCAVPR

SMILES: Cc1nnc2n1-c1ccc(Cl)cc1C(c1ccccc1)=NC2 [Alprazolam]
- concentrations in steady state related with toxicity [1]: higher than 60 ng/mL
- AUC(0-inf) (clinical): 167 ± 53.1 ng·h/mL
- Cmax (clinical): 12.6 ± 7.5 ng/mL
- Tmax (clinical): 2.6 ± 1.4 h
- t1/2 (Clearance half-life) (human, in vivo, po): 11.3 ± 2.2 h
- time to maximum plasma concentrations ([2]; po): 1 to 2 h
- Plasma clearance half-life, range [2]: 6.3 to 26.9 h
- attached to human serum proteins (human serum proteins): 80%

SMILES: N[C@H]1CC[C@@H](c2ccc(Cl)c(Cl)c2)c2ccccc21 [DemethylSertraline]
- activity over CYP2D6 isoenzyme compared with fluoxetine and its active metabolite (CYP2D6 isoenzyme): five to ten times lower
- activity over serotonin reuptake process compared with unaltered drug [3]: eight times lower

SMILES: CN[C@H]1CC[C@@H](c2ccc(Cl)c(Cl)c2)c2ccccc21 [Sertraline]
- in vitro inhibition of CYP2D6 isoenzyme (CYP2D6 isoenzyme; in vitro): weak in vitro inhibition
- activity over CYP2D6 isoenzyme compared with fluoxetine and its active metabolite (CYP2D6 isoenzyme): five to ten times lower
- effect of Sertraline on Alprazolam kinetics (the two drugs administered in combination): does not significantly alter
- variation coefficient of plasma concentrations ([4]; after delivering fixed doses): 38%
- dose recovered in urine and feces ([4]; oral administration, after seven days, 10080 min): 88%
- Plasma half-life ([4]; plasma): 22 to 30 h

SMILES: OCc1nnc2n1-c1ccc(Cl)cc1C(c1ccccc1)=NC2 [alpha-hydroxy-Alprazolam]
- biological activity compared with therapeutic activity of Alprazolam [5]: about one half

SMILES: O=C(c1ccccc1)c1ccccc1 [benzophenone]
- biological activity compared with therapeutic activity of Alprazolam [5]: essentially inactive

Reference: patent EP2186515A1, “PHARMACEUTICAL COMPOSITION COMPRISING THE COMBINATION OF AN ANTI-DEPRESSIVE AGENT AND AN ANSIOLYTIC AGENT FOR CONTROL AND TREATMENT OF DEPRESSIVE DISORDERS” (World Trade Import-Export, WTIE A.G., priority 2007, dated 2009)
